One assay has as its target T1, Rat ASCT2 (Rattus norvegicus, UniProt D3ZJ25).
T1 sequence (D3ZJ25 1-555): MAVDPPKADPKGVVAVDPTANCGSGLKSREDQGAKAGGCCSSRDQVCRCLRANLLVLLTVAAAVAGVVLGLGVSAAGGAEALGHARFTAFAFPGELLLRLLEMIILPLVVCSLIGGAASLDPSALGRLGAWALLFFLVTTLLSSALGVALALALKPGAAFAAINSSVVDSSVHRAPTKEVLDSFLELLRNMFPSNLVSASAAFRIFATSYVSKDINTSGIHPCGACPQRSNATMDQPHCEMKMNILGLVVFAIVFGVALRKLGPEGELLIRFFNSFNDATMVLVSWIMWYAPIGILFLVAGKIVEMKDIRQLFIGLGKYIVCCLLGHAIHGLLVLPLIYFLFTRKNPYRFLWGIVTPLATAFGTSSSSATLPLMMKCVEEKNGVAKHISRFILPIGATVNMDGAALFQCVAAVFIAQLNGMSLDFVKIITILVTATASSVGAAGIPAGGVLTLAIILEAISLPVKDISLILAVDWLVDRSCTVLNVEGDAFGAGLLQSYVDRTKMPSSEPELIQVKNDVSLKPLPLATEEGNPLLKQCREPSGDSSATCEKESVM
It counts as cell-based.

For another assay, the system named is ASCT2. The following applies: commercially available ASCT2 inhibitor; cited from earlier work.

Each structure is given as a SMILES string.

Take `O=C(O)[C@@H]1CCCN1` [proline]: the “activity in ASCT2” value at Rat ASCT2 (concentration up to 1 mM) is “does not induce any activity”. Consider `O=C(O)[C@@H]1C[C@@H](Cc2ccc(-c3ccccc3)cc2)CN1` [(R)-γ-(4-biphenylmethyl)-L-proline], for which the “higher affinity compared to any other ASCT2 inhibitor tested so far” value on Rat ASCT2 (compared to authors' earlier ASCT2 inhibitors [11],[15]) is listed as “about 8 fold”. Consider `N[C@@H](CCC(=O)Nc1ccc([N+](=O)[O-])cc1)C(=O)O` [L-γ-glutamyl-nitroanilide], for which the “affinity for ASCT2” value in the assay with ASCT2 is recorded as “mM affinity”. Usually Ki stands for a measure of affinity in units of concentration, obtained from inhibition or displacement. Low values mean higher affinity, high ones lower affinity. As for `O=C(O)[C@@H]1C[C@@H](Cc2ccccc2F)CN1` [(R)-γ-(2-fluoro-benzyl)-L-proline], affinity at Rat ASCT2 was put at a Ki of 83 ± 20 µM.

(Values after publication PMC5363072 (Bioorganic & medicinal chemistry letters, 2016).)
